Assay results taken from patent publication US20150210717A1, “SPECIFIC INHIBITORS OF PROTEIN P21 AS THERAPEUTIC AGENTS” (BADEN-WÜRTTEMBERG STIFTUNG GMBH, priority 2012, published 2015).

How the values were obtained:
p21 promoter = assay: Cell-based p21 promoter luciferase screen with IC50 validation in H1299 cells with doxycycline-inducible p53; settings: luciferase under p21 promoter, about 20 hours
Description: A cell-based screen was carried out to identify p21 inhibitors (FIG. 1a). H1299 cells (a cell line having a deletion in the p53 locus) were used. The H1299 cells contain a TetOn system for the inducible expression of p53. In addition, they contain luciferase under the control of the p21 promoter, which is activated by p53. Intracellular p53 expression was induced with doxycycline (0.5 μg/ml). Immediately thereafter, cells were exposed to test substances (5 μM) of the ChemBioNet collection (Leibniz Institut far Molekulare Pharmakologie, Berlin). About 20 hours later, cells were lysed and luciferase activity was determined. […]

[1] = system: wound healing in C57BL/6 mice; assay: Wound healing after skin biopsy in C57BL/6 mice, intradermal injection; assay type: in vivo
Excerpt: FIG. 4: I-18 treatment improves wound healing in 24 week C57BL/6 mice Skin-biopsies (4-5 mm) were taken at Day 0 (D0) and lesions were either treated with 118 inhibitor (right panel) or DMSO treated as control (left panel).
FIG. 5: Depicts a statistic evaluation of the wound healing area 0, 2, and 4 days after application of I18 or placebo to wound area. Skin biopsies (4-5 mm) were taken at Day 0 of young and old C57Bl6 mice and lesions were either treated with I18 inhibitor or DMSO. […] This trend further increased at Day 4.
Skin-biopsies (4-5 mm) were taken at Day 0 (D0) and lesions were either treated with I18 compound (FIG. 4, right panel) or DMSO as control (FIG. 4, left panel) by intradermal injection [50 μM].

p21-mRNA = p21-mRNA expression by qPCR in organs of Nothobranchius furzeri after intraperitoneal injection; assay type: in vivo; settings: all tissues tested, 10 μM intraperitoneal, 48 h post treatment
Description: FIG. 6: Decreased p21-mRNA expression in different organs of model organism Nothobranchius furzeri in response to I18-inhibitor treatment. p21-mRNA expression in different organs was analysed by quantitative PCR (qPCR) in response to treatment with the p21-inhibitor I18. Upper panel depicts the fold expression difference of p21-mRNA relative to tbp (TATA-box binding protein). Lower panel depicts fold expression of p21-mRNA relative to control (DMSO-treated animals). Note that there is an over 2-fold reduction in all tissues tested indicating the efficiency of p21-inhibitors across different species. 10 weeks old Nothobranchius furzeri were either injected intraperitoneal with I18-compound [10 μM] or with DMSO as control and sacrificed 48 h post treatment. RNA of various tissues was harvested and p21-mRNA expression was measured using quantitative PCR (qPCR). Fold expression was calculated relative to house-keeping gene tbp (TATA-box binding protein) (FIG. 6, upper panel) or control animals (FIG. 6, lower panel).

[2] = Homo sapiens, NCI-H1299, p53 induced with doxycycline 0.5 μg/ml

Compound	IC50 (p21 promoter; [2]) [nM]	further results
COc1ccc(C2C(C#N)=C(N)Oc3c2ccc2ccccc32)cc1C (centres unmarked) [A6, 2-amino-4-(4-methoxy-3-methylphenyl)-4H-benzo[h]chromene-3-carbonitrile]	1130	
COc1ccc(C(=O)Nc2nc(NC(=O)c3ccc(F)cc3)nn2-c2ccccc2)cc1 [E6, N-[5-[(4-Fluorobenzoyl)amino]-2-phenyl-1,2,4-triazol-3-y1]-4-methoxybenzamide]		IC50 (p21 promoter; p53 induced with doxycycline 0.5 μg/ml): 490 nM
NS(=O)(=O)c1ccc(CCNc2ncnc3c2c(-c2ccccc2)cn3-c2ccc(Br)cc2)cc1 [F3, 4-[2-[[7-(4-Bromophenyl)-5-phenylpyrrolo[2,3-d]pyrimidin-4-yl]amino]ethyl]benzenesulfonamide]	6080	
O=C(Nc1ccc(OCC(F)(F)C(F)F)c(C(F)(F)F)c1)c1ccccc1O [K2, 2-Hydroxy-N-[4-(2,2,3,3-tetrafluoropropoxy)-3-(trifluoromethyl)phenyl)benzamide]	1720	
Cc1c(Br)ccc(Nc2c([N+](=O)[O-])cc3c4c(cccc24)C(=O)N(CCO)C3=O)c1C [M3, 6-(4-Bromo-2,3-dimethylanilino)-2-(2-hydroxyethyl)-5-nitrobenzo[de]isoquinoline-1,3-dione]	3580	
CCc1ccc2c(c1)C1(NN=C(c3cccc4ccccc34)S1)C(=O)N2 (centres unmarked) [O6, 5-Ethyl-5′naphthalen-1-ylspiro[1H-indole-3,2′-3H-1,3,4-thiadiazole]-2-one]	3680	

More lines, main results first:

IC50 (p21 promoter; [2]) [nM]	Compound	further results
760	CCOC(=O)c1ccc(Nc2nc3nonc3nc2Nc2cccc(C)c2C)cc1 [A13, Ethyl-4-[[5-(2,3-dimethylanilino)-[1,2,5]oxadiazolo[3,4-b]pyrazin-6-yl]amino]benzoate]	
170	Cc1ccc2[nH]c3c(c2c1)CCCC3Nc1ccccc1 (centres unmarked) [I18, 6-methyl-N-phenyl-2,3,4,9-tetrahydro-1H-carbazol-1-amine]	wound healing in old treated mice versus p21-deficient mice ([1]; after 4 days, old mice): comparable to p21-deficient mice; wound healing of old mice compared to mock treated control mice of the same age ([1]; day 2, old C57Bl6 mice, trend further increased at day 4): significantly improved; wound healing compared to DMSO treated control mice ([1]; day 2 and 4, skin biopsies 4-5 mm, intradermal injection 50 μM): significantly improved; reduction of p21-mRNA expression relative to control (DMSO-treated animals) (p21-mRNA): over 2 fold
1110	CC(C)c1ccc(-c2c(C#N)c(N)n3c(nc4ccccc43)c2C#N)cc1 [N13, 1-Amino-3-(4-propan-2-ylphenyl)pyrido[1,2-a]benzimidazole-2,4-dicarbonitrile]	
1070	O=c1c2ccccc2c2nccc3c4cc(O)ccc4n1c32 [P21, 5-hydroxy-9H-benzo[c]indolo[3,2,1-ij][1,5]naphthyridin-9-one]	
